According to patent publication US20240190866A1, “POLYHYDROXYLATED INDOLIZIDINE AND PYRROLIZIDINE DERIVATIVES AND USES THEREOF” (Academia Sinica, priority 2021, published 2024):

Tests used:
HepG2 cells [1] = test: N-glycan profiling by mass spectrometric analysis; type: cell-based, human; conditions: HepG2, 0.1 to 10 μM, 72 h
Description: (§1) To this purpose, HepG2 and Huh7 cells were treated with ACK900 in dose-dependent manner (0.1 to 10 μM) for 72 h and N-glycan profiling was determined using mass spectrometric analysis. (FIGS. 1B and 1C)), This method was based on matching the experimental masses with the predicted masses of the glycans from the CFG carbohydrate database. The individual glycoforms were quantified and calculated for their proportions in all the glycoforms. Most N-glycans of untreated HepG2 and Huh7 were dominated by complex-type glycans containing sialic acids and fucoses. High-mannose or hybrid-type glycans were found in a relatively low percentage. […] These glycoform data from MS analysis were consistent with the surface binding of lectin using fluorescence microscopy.

Huh7 cells [2] = test: N-glycan profiling by mass spectrometric analysis; type: cell-based, human; conditions: Huh7, 0.1 to 10 μM, 72 h
Description: as §1

MDA-MB-231 cells = test: Anti-proliferative activity assay (CellTiter-Glo); type: cell-based, human; conditions: 48 h
Description: (§2) Human liver cancer HepG2 cells and Huh7 cells, breast cancer MDA-MB-231 cells, pancreatic cancer PANC-1 cells, and non-small cell lung (NSCL) cancer H1975 cells were maintained in Dulbecco's Modified Eagle Medium supplemented containing 10% fetal bovine serum (FBS), 100 units/ml penicillin and […] streptomycin in 37° C. incubator with 5% CO2.
(§3) Anti-proliferative activity of HepG2, Huh7 or PANC-1 cells was determined by 3-(4,5-dimethylthiazol-2-yl)-2,5-diphenyltetrazolium bromide (MTT) assay, while that of H1975 or MDA-MB-231 cells was determined by luminescent assay with the aid of commercial kit CellTiter-Glo® (Promega).
(§4) For H1975 and MDA-MB-231, cells were respectively seeded at 5×10^3 cells/well in 96-well plates and maintained for 14-16 hours. Cells were treated with dimethylsulfoxide (DMSO) or test compounds in varied concentrations for 48 h. Cell viability was monitored using Cell-TiterGlo (Promega), a kit that measures the quantity of ATP present in the cell culture, an indicator of metabolically active cells. The IC50 values of death cell lines were calculated accordingly.

H1975 cells = test: Anti-proliferative activity assay (CellTiter-Glo); type: cell-based, human; conditions: 48 h
Description: as §2, §3, §4

HepG2 cells [3] = test: Surface binding of lectin by fluorescence microscopy; type: cell-based, human; conditions: HepG2, 10 μM, 48 h
[4] = target: human lysosomal α-mannosidase (α-hLM) (Homo sapiens (Human), UniProt O00754); test: α-Mannosidase (α-hLM) activity assay, 4-MU-α-D-mannopyranoside substrate; type: biochemical; conditions: pH 4.6, 37° C., 1 h
Sequence of human lysosomal α-mannosidase (α-hLM) (O00754 50-1011): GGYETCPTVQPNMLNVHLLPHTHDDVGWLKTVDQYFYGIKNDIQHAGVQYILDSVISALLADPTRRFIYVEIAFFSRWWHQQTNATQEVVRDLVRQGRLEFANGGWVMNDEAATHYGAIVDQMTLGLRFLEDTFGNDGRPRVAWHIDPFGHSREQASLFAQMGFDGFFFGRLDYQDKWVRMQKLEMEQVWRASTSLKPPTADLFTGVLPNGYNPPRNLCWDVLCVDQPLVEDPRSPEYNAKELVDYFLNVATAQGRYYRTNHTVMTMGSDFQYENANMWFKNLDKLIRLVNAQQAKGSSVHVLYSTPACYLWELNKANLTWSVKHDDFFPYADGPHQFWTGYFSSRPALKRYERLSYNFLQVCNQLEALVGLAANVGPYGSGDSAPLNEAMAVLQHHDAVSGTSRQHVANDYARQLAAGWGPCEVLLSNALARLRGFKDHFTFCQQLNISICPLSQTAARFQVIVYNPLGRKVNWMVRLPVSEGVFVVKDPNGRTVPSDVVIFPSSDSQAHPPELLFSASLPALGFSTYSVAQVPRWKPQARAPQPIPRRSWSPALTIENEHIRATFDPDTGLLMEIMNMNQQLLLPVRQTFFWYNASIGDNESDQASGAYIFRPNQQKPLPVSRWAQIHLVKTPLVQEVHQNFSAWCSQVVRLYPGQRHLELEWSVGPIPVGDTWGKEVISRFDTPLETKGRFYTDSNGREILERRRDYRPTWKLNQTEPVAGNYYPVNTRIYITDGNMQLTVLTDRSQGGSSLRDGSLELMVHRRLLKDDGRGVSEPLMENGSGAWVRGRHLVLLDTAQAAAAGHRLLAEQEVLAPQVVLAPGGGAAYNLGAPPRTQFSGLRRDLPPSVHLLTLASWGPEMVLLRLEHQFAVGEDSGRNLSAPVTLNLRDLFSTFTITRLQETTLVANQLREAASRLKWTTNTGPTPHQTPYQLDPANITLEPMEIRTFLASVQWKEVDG
Description: Compounds were diluted to give the final concentration of 100 μM and mixed with 4-MU-α-D-mannopyranoside as substrate and human Golgi α-mannosidase II in phosphate buffer (0.1 M Sodium phosphate dibasic, pH 7.0) or human lysosomal α-mannosidase in citric phosphate buffer (0.1 M Sodium phosphate monobasic monohydrate, 0.5 mM citric acid monohydrate, pH 4.6). The assay was carried out at 37° C. for a certain time (1 h for α-hLM, 2 h for α-hGMII). Stop solution (0.5 M K2CO3(aq), pH 10.8) was then added to the reactions and the fluorescence was determined at 355 nm excitation and 460 nm emission (SpectraMax M5, Molecular Devices). Inhibition was performed as relative enzyme activity to control. The active compounds were selected for libraries preparation and further tested at lower concentration to determine their IC50 values. The assays performed in 384-wells of the microtiter plates.

HepG2 cells [5] = test: Transwell migration assay; type: cell-based, human; conditions: 18 hours
Description: (§5) Chemotaxis experiments with human HepG2Huh7, or PANC-1 cells were assayed by using transwells (Millipore). The cells to be analyzed (5×10^4 cells/well) were seeded in the upper chambers of the 24-well plate in 400 μL serum-free medium. FBS (10%) was used as the chemoattractant with or without different concentrations of the test compound (e.g., ACK900, ACK901, ACK902) in the lower chamber, and the plate was incubated under standard conditions. After incubation for 18 hours, the media in the upper chambers were aspirated and washed with phosphate-buffered saline (PBS) twice. Both non-migrated and migrated cells were fixed with 4% paraformaldehyde (PFA) for 30 minutes at room temperature, stained with 2% crystal violet solution. The non-invading cells were removed from the upper surface of the insert membrane with a cotton swab. The images were taken using an imaging reader (Cytation 5, BioTek, VT, U.S.A.) and analyzed using NIH ImageJ software. Percent in the results represent percent of initial number of cells in the migrating and nonmigrating Cell fractions.

PANC-1 cells [6] = test: Transwell migration assay; type: cell-based, human; conditions: PANC-1, transwell, 18 hours
Description: as §5

Huh7 cells [7] = test: Transwell migration assay; type: cell-based, human; conditions: 18 hours
Description: as §5

HepG2 cells [8] = test: Transwell invasion assay; type: cell-based, human
Description: as §5

PANC-1 cells [9] = test: Transwell invasion assay; type: cell-based, human; conditions: PANC-1, transwell
Description: as §5

Huh7 cells [10] = test: Transwell invasion assay; type: cell-based, human
Description: as §5

IC50 (MDA-MB-231 cells): 4.6 µM
IC50 (H1975 cells): 13.9 µM
IC50 [4]: 14 µM
SMILES: CCC[C@H]1CC[C@H](c2ccc(NC(=S)NC[C@@H]3[C@@H](O)[C@@H](O)[C@H]4[C@H](O)CCCN43)cc2)CC1 [ACK900]
N-glycan pattern (HepG2 cells [1]): significant shift of N-glycopatterns from complex chains to the hybrid-type glycan
N-glycan pattern (Huh7 cells [2]): significant shift of N-glycopatterns from complex chains to the hybrid-type glycan
surface binding of Concanavalin A (ConA) (HepG2 cells [3]): markedly increased
surface binding of galectin-1 (Gal1) (HepG2 cells [3]): substantially decreased
migratory capability (HepG2 cells [5]): remarkably decreased
migratory capability (PANC-1 cells [6]): remarkably decreased
migratory capability (Huh7 cells [7]): remarkably decreased
invasive capability (HepG2 cells [8]): remarkably decreased
invasive capability (PANC-1 cells [9]): remarkably decreased
invasive capability (Huh7 cells [10]): remarkably decreased
